# Measurements as given in ChEMBL document CHEMBL1201862, “PubChem BioAssay data set” (2004).
# Active and inactive are the calls of the source.
# Key:
# [1] = toxicity toward HepG2 liver cells – cell-based, plate reader, cherry-pick, antagonist series, cytotoxicity control, dose response (AID 743416); format: functional
# [2] = A549 cell cytotoxicity, dose response, cytotoxicity control, plate reader, cherry-pick, antagonist series (AID 743412); format: functional, cell-based
# cells [3] = format: functional, cell-based
# cells [4] = format: functional, cell-based; remark: listed apart in the source
# [5] = molecular target: Voltage-dependent T-type calcium channel subunit alpha-1H (Homo sapiens, UniProt O95180); format: functional;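 also: channel activity triggered by adding a high calcium stimulation buffer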
# [6] = molecular target: Mitogen-activated protein kinase 10 (Homo sapiens, UniProt P53779); assay: Dose response biochemical screening assay for inhibitors of c-Jun N-Terminal Kinase 3 (JNK3). [Related pubchem assays: 746 ]
# [7] = molecular target: SWI/SNF-related matrix-associated actin-dependent regulator of chromatin subfamily A member 2 (Homo sapiens, UniProt P51531); assay: Luminescence-based cell-based high throughput dose response assay to identify activators of the function of SWI/SNF related, matrix associated, actin dependent regulator of chromatin, subfamily a, member 2 (SMARCA2, BRM).; format: functional
# [8] = Counterscreen for activators of the function of SWI/SNF related, matrix associated, actin dependent regulator of chromatin, subfamily a, member 2 (SMARCA2, BRM): Luminescence-based cell-based high throughput dose response assay to identify non-selective compounds using the VP16 reporter assay.; format: functional
# [9] = general mammalian cell viability loss – activator set, cherry-pick, cytotoxicity control for miR-122 modulator project, dose response (AID 720690); format: functional, cell-based;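 also: HEK293T human cells scored for general mammalian cytotoxicity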
# [10] = activation of miR-122 Renilla sensor silencing – cell-based, Huh7 psiCHECK-miR122, Renilla luciferase, cherry-picked, dose response (AID 651956); format: functional;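 also: huh7 hepatoma cells stably carrying a psiCHECK-2 miR-122 sensor plasmid; renilla luciferase signal reporting endogenous miR-122 activity after 48 h compound exposure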
# Estrogen receptor beta [11] = molecular target: T1, Estrogen receptor beta (Homo sapiens, UniProt Q92731);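 also: recombinant ER-beta bound to coactivator SRC1 peptide in presence of estradiol agonist; inhibitors block coactivator peptide binding and lower the FRET signal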
# Estrogen receptor = molecular target: T2, Estrogen receptor (Homo sapiens, UniProt P03372);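 also: potency for inhibiting coactivator peptide recruitment to the receptor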
# T2 sequence (P03372 whole entry): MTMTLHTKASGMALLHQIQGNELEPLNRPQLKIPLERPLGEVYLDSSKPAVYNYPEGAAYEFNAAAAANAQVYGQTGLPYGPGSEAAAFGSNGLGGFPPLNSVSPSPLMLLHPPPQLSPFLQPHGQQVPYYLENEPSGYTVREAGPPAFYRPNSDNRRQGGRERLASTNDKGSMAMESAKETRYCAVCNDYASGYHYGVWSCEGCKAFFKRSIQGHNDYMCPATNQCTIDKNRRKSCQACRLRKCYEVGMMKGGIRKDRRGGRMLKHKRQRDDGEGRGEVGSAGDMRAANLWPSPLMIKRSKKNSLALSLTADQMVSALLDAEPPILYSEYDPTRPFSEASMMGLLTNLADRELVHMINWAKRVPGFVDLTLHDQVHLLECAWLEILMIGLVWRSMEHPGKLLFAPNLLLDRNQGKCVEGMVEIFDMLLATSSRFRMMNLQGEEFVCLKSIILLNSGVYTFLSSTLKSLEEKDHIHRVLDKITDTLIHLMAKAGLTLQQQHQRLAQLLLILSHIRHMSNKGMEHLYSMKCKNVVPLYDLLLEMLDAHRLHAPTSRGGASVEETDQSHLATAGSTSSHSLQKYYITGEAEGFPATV
# Estrogen receptor beta [12] = molecular target: T1, Estrogen receptor beta; assay: blockers of SRC-3 recruitment to ERβ – biochemical, ELISA, streptavidin-HRP readout, orthogonal assay, confirmation (AID 1060)
# [13] = HEK-293T cell viability reduction – luminescence, B-cell screen hits, cytotoxicity control for BCR NF-kB inhibitor project, dose response (AID 489021); format: functional, cell-based;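 also: HEK-293T cells carrying an NF-kB luciferase reporter; cells exposed to compound for about 14 hours before viability readout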
# [14] = viability of PTEN-deleted HCT116 cells – cell-based, HCT116 PTEN knockout, dose response (AID 1047); format: functional;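 also: HCT116 colon tumor cells with PTEN knocked out; cells exposed to compound for 60 hours before readout; potency for loss of cell viability measured by luminescence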
# Protein RecA = molecular target: T3, Protein RecA (Mycobacterium tuberculosis, UniProt P9WHJ3); assay: Fluorescence Cell-Free Homogeneous Dose Retest to Identify Inhibitors of RecA-Intein Splicing Activity. [Related pubchem assays (depositor defined):AID2097, AID2223, AID489010, AID492950]; format: functional
# T3 sequence (P9WHJ3 whole entry): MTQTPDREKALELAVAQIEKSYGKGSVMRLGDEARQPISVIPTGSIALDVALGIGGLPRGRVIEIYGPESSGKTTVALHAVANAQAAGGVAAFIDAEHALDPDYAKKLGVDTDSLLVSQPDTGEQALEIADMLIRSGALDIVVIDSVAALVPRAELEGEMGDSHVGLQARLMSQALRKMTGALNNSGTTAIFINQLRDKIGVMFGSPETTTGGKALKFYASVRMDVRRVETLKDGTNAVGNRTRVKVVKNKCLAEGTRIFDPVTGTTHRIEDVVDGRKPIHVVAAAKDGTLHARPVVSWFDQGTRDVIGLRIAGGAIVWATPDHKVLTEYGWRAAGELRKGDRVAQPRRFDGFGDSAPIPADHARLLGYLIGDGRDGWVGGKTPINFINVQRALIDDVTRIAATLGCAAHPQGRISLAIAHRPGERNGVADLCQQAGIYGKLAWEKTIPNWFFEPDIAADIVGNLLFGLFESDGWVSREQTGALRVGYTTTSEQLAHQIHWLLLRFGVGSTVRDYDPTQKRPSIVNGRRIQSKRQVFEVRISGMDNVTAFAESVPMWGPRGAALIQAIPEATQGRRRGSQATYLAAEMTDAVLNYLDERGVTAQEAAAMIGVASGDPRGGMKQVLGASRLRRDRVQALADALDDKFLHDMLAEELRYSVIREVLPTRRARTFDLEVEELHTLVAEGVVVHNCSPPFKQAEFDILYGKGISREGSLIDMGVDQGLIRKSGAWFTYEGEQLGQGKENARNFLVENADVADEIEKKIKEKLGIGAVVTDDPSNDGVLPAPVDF
# [15] = Luminescence Cell-Based Dose Retest to Confirm Inhibitors of Cancer Stem Cells. [Related pubchem assays (depositor defined):AID2717, AID2721]; format: functional; settings: Homo sapiens
# [16] = molecular target: T4, Replicative DNA helicase DnaB (Mycobacterium tuberculosis, UniProt P9WMR3); assay: DnaB intein splicing inhibitors, dose response, biochemical, cell-free fluorescence (AID 449749); format: functional
# T4 sequence (P9WMR3 whole entry): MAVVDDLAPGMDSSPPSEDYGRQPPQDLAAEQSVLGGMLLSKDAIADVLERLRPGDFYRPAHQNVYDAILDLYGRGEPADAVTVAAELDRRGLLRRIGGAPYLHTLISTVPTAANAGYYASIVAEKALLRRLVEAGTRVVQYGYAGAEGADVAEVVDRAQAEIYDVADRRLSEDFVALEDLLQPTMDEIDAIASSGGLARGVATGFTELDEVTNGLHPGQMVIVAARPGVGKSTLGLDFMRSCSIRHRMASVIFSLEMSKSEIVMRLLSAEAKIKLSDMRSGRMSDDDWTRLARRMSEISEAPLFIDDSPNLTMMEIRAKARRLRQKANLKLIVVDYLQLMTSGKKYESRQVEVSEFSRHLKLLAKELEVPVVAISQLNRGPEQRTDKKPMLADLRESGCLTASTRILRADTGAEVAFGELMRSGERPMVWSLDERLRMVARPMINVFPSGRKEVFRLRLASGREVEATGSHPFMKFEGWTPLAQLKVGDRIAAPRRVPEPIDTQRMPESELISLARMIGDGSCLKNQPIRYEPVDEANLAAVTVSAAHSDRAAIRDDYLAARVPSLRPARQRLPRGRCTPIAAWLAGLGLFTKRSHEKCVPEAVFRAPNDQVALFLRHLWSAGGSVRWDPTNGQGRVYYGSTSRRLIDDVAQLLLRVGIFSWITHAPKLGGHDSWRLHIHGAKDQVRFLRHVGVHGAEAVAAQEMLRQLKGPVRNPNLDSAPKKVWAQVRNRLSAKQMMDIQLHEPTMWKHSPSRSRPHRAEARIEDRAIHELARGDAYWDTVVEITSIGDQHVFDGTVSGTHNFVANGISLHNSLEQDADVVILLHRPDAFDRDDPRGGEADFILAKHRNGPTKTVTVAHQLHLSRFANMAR
# INS1 = assay: INS-1E survival protection against cytokine death – cell-based, luminescence, retest, dose response (AID 449756); format: functional; settings: Rattus norvegicus;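 also: cell death triggered by IL-1 beta plus TNF-alpha plus IFN-gamma mixture; protective hits raise ATP signal compared with cytokine alone wells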
# [17] = viability of HCT116 lacking mutant beta-catenin – cell-based, human colon tumor, dose response (AID 1045); format: functional;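 also: HCT116 colon tumor cells with beta catenin knocked out; cells exposed to compound for 60 hours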
# [18] = Fluorescence-based cell-based high throughput dose response assay for inhibitors of the interaction of nucleotide-binding oligomerization domain containing 2 (NOD2) and the receptor-interacting serine-threonine kinase 2 (RIPK2).; format: functional, Homo sapiens; settings: Homo sapiens
# Vero [19] = assay: cells; format: functional; settings: Chlorocebus sabaeus
# [20] = reduced cellular PGC1a acetyl-lysine signal – cell-based, cherry-picked samples, dose response (AID 720514); format: functional;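 also: potency may reflect raised or lowered acetylation signal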
# Vero [21] = assay: cells; format: functional, cell-based; settings: Chlorocebus sabaeus
# [22] = Luminescence Cell-Based Dose Response HTS to Identify Inhibitors of 5'UTR Stem-Loop Driven Prion Protein mRNA Translation in H4 Neuroglioblastoma Cells. [Related pubchem assays: 1827 (Project Summary), 1813 (Primary HTS)]; format: functional
# [23] = alpha-synuclein stem-loop luciferase translation blockers – H4 neuroglioma cells, luminescence, confirmation (AID 1988); format: functional, cell-based
# [24] = luciferase reporter signal suppression in cells – H4 neuroglioma cells, luminescence, dose response (AID 1990); format: functional, cell-based
# [25] = molecular target: Eukaryotic translation initiation factor 4E (Mus musculus, UniProt P63073); assay: blockers of eIF4G binding by eIF4E – biochemical, TR-FRET, dose response (AID 855); format: functional;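 also: potency for disrupting eIF4E binding to eIF4GI seen as loss of FRET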
# [26] = general cell-killing toxicity readout – plate reader, dry powder samples, cytotoxicity control for PAX8 inhibitor project, dose response (AID 743021); format: functional, cell-based
# Paired box protein Pax-8 = Paired box protein Pax-8 (Homo sapiens, UniProt Q06710); assay: PAX8 transcriptional activity inhibition in RMG-I – RMG-I cells, luciferase, cherry-pick, dose response (AID 687027); format: functional, cell-based;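 also: luciferase reporter driven by Pax8 target thyroperoxidase promoter measured by SteadyGlo luminescence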
# Chain of Paired box protein Pax-8 (Q06710 whole entry): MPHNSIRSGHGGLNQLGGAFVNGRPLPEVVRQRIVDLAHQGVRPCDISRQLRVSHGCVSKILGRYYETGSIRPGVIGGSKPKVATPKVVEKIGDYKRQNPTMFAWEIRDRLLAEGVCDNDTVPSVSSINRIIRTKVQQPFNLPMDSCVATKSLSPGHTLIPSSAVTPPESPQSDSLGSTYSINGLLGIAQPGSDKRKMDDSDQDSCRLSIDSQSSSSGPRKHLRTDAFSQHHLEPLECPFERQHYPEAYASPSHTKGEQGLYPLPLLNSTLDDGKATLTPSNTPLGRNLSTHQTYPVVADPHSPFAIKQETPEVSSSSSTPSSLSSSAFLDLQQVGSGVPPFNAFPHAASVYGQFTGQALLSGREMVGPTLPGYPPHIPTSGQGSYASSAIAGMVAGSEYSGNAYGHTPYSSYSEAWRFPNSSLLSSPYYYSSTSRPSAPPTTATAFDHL
# Chain of SWI/SNF-related matrix-associated actin-dependent regulator of chromatin subfamily A member 2 (P51531 whole entry): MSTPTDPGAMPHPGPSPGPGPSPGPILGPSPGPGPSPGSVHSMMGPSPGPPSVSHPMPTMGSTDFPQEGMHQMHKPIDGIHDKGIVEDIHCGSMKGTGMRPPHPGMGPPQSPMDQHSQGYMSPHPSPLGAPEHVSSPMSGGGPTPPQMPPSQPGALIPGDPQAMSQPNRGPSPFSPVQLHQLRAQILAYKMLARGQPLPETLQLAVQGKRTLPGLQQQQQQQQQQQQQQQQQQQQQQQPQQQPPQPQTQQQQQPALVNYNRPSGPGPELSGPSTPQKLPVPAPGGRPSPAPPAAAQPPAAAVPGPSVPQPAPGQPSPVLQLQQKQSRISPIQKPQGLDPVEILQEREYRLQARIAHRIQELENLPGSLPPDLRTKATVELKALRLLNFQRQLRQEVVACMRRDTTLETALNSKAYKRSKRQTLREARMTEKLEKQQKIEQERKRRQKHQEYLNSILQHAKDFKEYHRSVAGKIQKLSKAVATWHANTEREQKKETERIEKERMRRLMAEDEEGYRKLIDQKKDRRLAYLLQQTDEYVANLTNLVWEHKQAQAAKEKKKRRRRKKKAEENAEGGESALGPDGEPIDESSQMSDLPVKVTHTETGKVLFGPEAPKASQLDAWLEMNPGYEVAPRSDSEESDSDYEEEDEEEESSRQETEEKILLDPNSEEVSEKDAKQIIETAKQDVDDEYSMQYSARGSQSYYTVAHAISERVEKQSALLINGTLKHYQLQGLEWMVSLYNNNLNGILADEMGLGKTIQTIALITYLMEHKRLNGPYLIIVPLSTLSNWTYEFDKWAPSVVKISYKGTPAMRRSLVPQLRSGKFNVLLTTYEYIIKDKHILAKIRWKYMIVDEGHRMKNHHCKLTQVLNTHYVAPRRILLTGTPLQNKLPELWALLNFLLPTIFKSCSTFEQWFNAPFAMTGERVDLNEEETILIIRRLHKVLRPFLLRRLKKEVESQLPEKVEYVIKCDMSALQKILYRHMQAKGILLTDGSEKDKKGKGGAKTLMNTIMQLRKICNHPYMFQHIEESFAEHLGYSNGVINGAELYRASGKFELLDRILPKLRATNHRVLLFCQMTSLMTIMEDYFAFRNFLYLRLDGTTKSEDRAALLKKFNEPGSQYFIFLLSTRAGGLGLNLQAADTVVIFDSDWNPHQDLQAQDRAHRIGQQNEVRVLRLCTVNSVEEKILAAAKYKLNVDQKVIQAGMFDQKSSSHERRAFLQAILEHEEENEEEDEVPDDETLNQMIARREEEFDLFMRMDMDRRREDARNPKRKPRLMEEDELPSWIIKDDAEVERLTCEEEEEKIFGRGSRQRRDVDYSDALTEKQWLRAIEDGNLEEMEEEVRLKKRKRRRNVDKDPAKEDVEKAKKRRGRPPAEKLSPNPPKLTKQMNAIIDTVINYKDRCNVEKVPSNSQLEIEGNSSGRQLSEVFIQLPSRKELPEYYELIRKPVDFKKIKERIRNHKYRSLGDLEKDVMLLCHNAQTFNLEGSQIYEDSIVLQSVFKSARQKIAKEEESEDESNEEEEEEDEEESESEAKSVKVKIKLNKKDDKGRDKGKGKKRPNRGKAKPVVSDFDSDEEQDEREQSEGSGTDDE
# Chain of Mitogen-activated protein kinase 10 (P53779 whole entry): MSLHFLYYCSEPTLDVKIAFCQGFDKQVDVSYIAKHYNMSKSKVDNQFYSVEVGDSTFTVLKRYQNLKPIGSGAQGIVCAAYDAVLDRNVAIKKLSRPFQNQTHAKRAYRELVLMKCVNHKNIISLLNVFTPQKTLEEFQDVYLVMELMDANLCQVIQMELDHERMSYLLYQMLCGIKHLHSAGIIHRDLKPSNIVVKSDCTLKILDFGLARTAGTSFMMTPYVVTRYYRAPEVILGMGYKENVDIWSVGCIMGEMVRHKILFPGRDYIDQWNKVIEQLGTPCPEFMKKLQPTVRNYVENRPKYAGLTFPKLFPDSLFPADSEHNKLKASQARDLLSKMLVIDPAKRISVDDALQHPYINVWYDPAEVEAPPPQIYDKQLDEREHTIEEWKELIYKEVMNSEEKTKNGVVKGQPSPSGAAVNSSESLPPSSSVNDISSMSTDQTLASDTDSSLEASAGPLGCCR
# T1 sequence (Q92731 whole entry): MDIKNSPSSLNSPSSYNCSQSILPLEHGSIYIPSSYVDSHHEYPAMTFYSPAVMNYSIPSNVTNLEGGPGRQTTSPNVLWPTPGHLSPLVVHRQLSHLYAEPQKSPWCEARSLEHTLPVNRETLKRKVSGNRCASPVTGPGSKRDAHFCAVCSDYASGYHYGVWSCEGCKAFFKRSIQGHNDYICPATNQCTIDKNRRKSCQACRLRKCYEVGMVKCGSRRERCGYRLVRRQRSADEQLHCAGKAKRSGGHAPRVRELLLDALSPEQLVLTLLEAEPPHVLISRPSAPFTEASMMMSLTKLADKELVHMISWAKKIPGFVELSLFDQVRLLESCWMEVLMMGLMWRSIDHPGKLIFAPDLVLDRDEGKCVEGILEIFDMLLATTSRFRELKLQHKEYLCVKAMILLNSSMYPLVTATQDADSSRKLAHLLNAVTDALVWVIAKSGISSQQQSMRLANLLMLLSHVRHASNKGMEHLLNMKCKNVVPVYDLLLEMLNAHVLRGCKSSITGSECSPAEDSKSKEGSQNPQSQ
# Chain of Eukaryotic translation initiation factor 4E (P63073 whole entry): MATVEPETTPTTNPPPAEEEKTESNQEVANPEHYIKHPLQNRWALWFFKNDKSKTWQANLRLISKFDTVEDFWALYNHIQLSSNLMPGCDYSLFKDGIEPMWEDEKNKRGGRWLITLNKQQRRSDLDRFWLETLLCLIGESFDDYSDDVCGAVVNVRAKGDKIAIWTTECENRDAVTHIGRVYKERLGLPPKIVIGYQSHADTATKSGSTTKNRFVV
structure (smiles),measurement,setting,value
Cc1ccc(S(=O)(=O)Nc2ccc3c(c2)C(=O)N([C@H](C)CO)C[C@@H](C)[C@H](CN(C)S(=O)(=O)c2cccs2)OCCCC[C@@H](C)O3)cc1,AC50,[1],> 52 µM (inactive)
same,AC50,[2],32.1 µM (active)
Cc1c(C#N)c(O)n(CCO)c(=O)c1CN1CCCC(C)C1 (configuration not stated),EC50,cells [3],> 29.9 µM (inactive)
same,IC50,cells [4],> 29.9 µM (inactive)
CS(=O)(=O)N1CCN(c2ccccc2NC(=O)CSc2ccc(Cl)cc2)CC1,EC50,[5],7.39 µM (active)
same,IC50,[6],90.5 µM (not active)
Cc1nccc(-c2cc(-c3ccc(Cl)cc3Cl)no2)n1,EC50,[7],> 91.2 µM (inactive)
same,EC50,[8],> 91.2 µM (inactive)
c1ccc2[nH]c3c4ccccc4nc-3nc2c1,IC50,[6],13.9 µM (not active)
CCC(=O)N(C)C[C@H]1Oc2cc(C#CC3CCCCC3)ccc2S(=O)(=O)N([C@@H](C)CO)C[C@H]1C,AC50,[9],27.7 µM (active)
same,AC50,[10],7.88 µM (active)
CCn1nnc(NC(=O)CSc2ccc(Cl)cc2)n1,IC50,Estrogen receptor beta [11],4.65 µM (active)
same,IC50,Estrogen receptor,9.27 µM (active)
same,IC50,Estrogen receptor beta [12],> 109 µM (not active)
COc1cccc(CNC(=O)COC(=O)c2nc(Cl)c(Cl)c(Cl)c2Cl)c1,EC50,[7],> 91.2 µM (inactive)
same,EC50,[8],> 91.2 µM (inactive)
CCOc1ccc(NC(=O)CCCc2cc(-c3ccc(OCC)cc3)on2)cc1,IC50,[13],> 80 µM (inactive)
Cc1nnc(SCc2nc3ccccc3s2)n1N,EC50,[7],> 91.1 µM (inactive)
same,EC50,[8],> 91.1 µM (inactive)
O=C(NCc1cccnc1)/C(=C\c1ccc(-c2cccc(Cl)c2)o1)S(=O)(=O)c1ccccc1,EC50,[14],3.2 µM (active)
same,EC50,Protein RecA,17.8 µM (active)
same,AC50,[15],2.35 µM (active)
same,AC50,[16],13.7 µM (active)
same,AC50,INS1,7.76 µM (active)
same,EC50,[17],2.86 µM (active)
same,IC50,[18],10.8 µM (inactive)
same,CC50,Vero [19],9.17 µM (active)
same,AC50,[20],15 µM (active)
same,IC50,Vero [21],22.8 µM (active)
CN(c1ccc(C(=O)Nc2nccs2)cc1)S(=O)(=O)c1ccccc1,IC50,[6],46.9 µM (not active)
N#C[C@H]1[C@@H](c2ccc(C3=CCCCC3)cc2)[C@H](CO)N1C(=O)c1ccccn1,AC50,[1],34.2 µM (active)
O=C1NC2=C(C(=O)c3ccccc32)C(c2ccccc2)N1 (configuration not stated),IC50,[6],38.3 µM (not active)
CCN(C[C@@H]1N[C@@H](CO)[C@H]1c1ccc(-c2cccc(F)c2)cc1)C(=O)CN(C)C,AC50,[9],25.7 µM (active)
same,AC50,[10],13 µM (active)
CC(C)(C)OC(=O)N1CCN(c2ccc(NC(=O)Cn3nnc(-c4ccccc4)n3)cc2)CC1,IC50,Estrogen receptor beta [11],6.06 µM (active)
same,IC50,Estrogen receptor beta [12],2.7 µM (not active)
COC(=O)c1[nH]c2ccc(C)cc2c1NC(=O)Nc1ccccc1OC,IC50,[13],> 80 µM (inactive)
CC(=O)c1c(COC(=O)c2ccco2)nc2ccccc2[n+]1[O-],EC50,[22],> 120 µM (not active)
same,IC50,Estrogen receptor beta [11],10.8 µM (active)
same,IC50,Estrogen receptor,29.2 µM (active)
same,IC50,Estrogen receptor beta [12],< 77 µM (not active)
same,EC50,[23],> 120 µM (not active)
same,EC50,[24],> 120 µM (not active)
Cn1c(C(C)(O)C(O)c2ccccc2)nc2ccccc21 (configuration not stated),IC50,[25],> 64 µM (inactive)
CC(=O)c1cccc(S(=O)(=O)NCC2CCCCC2)c1,AC50,[10],5.36 µM (active)
Cc1ccc(Cl)cc1N1CCN(C(=O)c2noc(C)c2[N+](=O)[O-])CC1,AC50,[26],43.2 µM (active)
same,AC50,Paired box protein Pax-8,6.41 µM (active)
